Laboratory results from patent US9790228B2, “Heterocyclic kinase inhibitors” (Intellikine LLC, priority 2008, dated 2017).
Like-named read-outs stand apart in the source and are kept apart here.

How the values were obtained:
Type in all cases: biochemical
p110δ/p85α = p110δ/p85α (Homo sapiens (Human), UniProt O00329); assay: PI3K δ inhibition assay (TLC lipid kinase or HTRF)
Procedure: (§1) Class I PI3-Ks can be either purchased (p110α/p85α, p110β/p85α, p110δ/p85α from Upstate, and p110γ from Sigma) or expressed as previously described (Knight et al., 2004). IC50 values are measured using either a standard TLC assay for lipid kinase activity (described below) or a high-throughput membrane capture assay. Kinase reactions are performed by preparing a reaction mixture containing kinase, inhibitor (2% DMSO final concentration), buffer (25 mM HEPES, pH 7.4, 10 mM MgCl2), and freshly sonicated phosphatidylinositol (100 μg/ml). Reactions are initiated by the addition of ATP containing 10 μCi of γ-32P-ATP to a final concentration 10 or 100 μM and allowed to proceed for 5 minutes at room temperature. For TLC analysis, reactions are then terminated by the addition of […] 1N HCl followed by 160 μl CHCl3:MeOH (1:1). The biphasic mixture is vortexed, briefly centrifuged, and the organic phase is transferred to a new tube using a gel loading pipette tip precoated with CHCl3. This extract is spotted on TLC plates and developed for 3-4 hours in a 65:35 solution of n-propanol:1M acetic acid. The TLC plates are then dried, exposed to a phosphorimager screen (Storm, Amersham), and quantitated. For each compound, kinase activity is measured at 10-12 inhibitor concentrations representing two-fold dilutions from the highest concentration tested (typically, 200 μM).
(§2) Other commercial kits or systems for assaying PI3-K activities are available. The commercially available kits or systems can be used to screen for inhibitors and/or agonists of PI3-Ks including but not limited to PI 3-Kinase α, β, δ, and γ. Anr exemplary system is PI3-Kinase (human) HTRF™ Assay from Upstate. […] Briefly, the assay is a time resolved FRET assay that indirectly measures PIP3 product formed by the activity of a PI3-K. The kinase reaction is performed in a microtitre plate (e.g., a 384 well microtitre plate). The total reaction volume is approximately 20 ul per well. In the first step, each well receives 2 ul of test compound in 20% dimethylsulphoxide resulting in a 2% DMSO final concentration. Next, approximately 14.5 ul of a kinase/PIP2 mixture (diluted in 1× reaction buffer) is added per well for a final concentration of 0.25-0.3 ug/ml kinase and 10 uM PIP2. The plate is sealed and incubated for 15 minutes at room temperature. To start the reaction, 3.5 ul of ATP (diluted in 1× reaction buffer) is added per well for a final concentration of 10 uM ATP. The plate is sealed and incubated for 1 hour at room temperature. The reaction is stopped by adding 5 ul of Stop Solution per well and then 5 ul of Detection Mix is added per well. The plate is sealed, incubated for 1 hour at room temperature, and then read on an appropriate plate reader. Data is analyzed and IC50s are generated using GraphPad Prism 5.

p110α/p85α = p110α/p85α (Homo sapiens (Human), UniProt P42336); assay: PI3K α inhibition assay (TLC lipid kinase or HTRF)
Procedure: as §1, §2

p110γ = p110γ (Homo sapiens (Human), UniProt P48736); assay: PI3K γ inhibition assay (TLC lipid kinase or HTRF)
Procedure: as §1, §2

p110β/p85α = p110β/p85α (Homo sapiens, UniProt P42338); assay: PI3K β inhibition assay (TLC lipid kinase or HTRF)
Procedure: as §1, §2

Sequence of p110β/p85α (P42338 whole entry, looked up): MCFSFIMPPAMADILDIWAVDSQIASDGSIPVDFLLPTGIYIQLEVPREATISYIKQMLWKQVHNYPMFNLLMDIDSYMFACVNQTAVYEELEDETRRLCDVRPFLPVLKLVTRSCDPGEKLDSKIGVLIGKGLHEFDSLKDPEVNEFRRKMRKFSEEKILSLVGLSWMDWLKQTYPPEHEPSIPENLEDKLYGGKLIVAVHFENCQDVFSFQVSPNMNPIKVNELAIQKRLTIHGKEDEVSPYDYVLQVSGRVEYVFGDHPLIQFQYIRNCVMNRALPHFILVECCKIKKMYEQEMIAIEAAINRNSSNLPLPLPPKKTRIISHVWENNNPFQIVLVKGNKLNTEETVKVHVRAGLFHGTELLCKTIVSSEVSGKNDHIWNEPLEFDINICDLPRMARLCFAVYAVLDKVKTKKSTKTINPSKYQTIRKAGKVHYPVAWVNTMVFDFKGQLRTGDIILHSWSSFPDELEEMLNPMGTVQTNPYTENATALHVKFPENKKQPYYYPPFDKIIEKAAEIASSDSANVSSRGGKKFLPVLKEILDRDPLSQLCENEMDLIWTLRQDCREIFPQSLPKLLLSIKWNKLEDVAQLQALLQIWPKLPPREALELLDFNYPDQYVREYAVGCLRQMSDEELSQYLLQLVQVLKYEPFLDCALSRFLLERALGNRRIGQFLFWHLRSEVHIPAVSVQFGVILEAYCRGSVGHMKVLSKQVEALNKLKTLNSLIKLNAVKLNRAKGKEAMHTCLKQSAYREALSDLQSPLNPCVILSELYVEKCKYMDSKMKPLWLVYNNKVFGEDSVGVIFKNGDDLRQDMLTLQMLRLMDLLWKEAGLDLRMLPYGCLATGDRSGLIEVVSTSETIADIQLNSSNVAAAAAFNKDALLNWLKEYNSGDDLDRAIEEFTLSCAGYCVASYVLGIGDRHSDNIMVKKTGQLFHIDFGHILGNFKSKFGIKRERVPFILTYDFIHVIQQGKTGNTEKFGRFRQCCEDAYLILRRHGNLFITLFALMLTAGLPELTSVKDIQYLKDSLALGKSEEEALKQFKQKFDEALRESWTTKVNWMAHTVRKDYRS
Sequence of p110γ (P48736 whole entry): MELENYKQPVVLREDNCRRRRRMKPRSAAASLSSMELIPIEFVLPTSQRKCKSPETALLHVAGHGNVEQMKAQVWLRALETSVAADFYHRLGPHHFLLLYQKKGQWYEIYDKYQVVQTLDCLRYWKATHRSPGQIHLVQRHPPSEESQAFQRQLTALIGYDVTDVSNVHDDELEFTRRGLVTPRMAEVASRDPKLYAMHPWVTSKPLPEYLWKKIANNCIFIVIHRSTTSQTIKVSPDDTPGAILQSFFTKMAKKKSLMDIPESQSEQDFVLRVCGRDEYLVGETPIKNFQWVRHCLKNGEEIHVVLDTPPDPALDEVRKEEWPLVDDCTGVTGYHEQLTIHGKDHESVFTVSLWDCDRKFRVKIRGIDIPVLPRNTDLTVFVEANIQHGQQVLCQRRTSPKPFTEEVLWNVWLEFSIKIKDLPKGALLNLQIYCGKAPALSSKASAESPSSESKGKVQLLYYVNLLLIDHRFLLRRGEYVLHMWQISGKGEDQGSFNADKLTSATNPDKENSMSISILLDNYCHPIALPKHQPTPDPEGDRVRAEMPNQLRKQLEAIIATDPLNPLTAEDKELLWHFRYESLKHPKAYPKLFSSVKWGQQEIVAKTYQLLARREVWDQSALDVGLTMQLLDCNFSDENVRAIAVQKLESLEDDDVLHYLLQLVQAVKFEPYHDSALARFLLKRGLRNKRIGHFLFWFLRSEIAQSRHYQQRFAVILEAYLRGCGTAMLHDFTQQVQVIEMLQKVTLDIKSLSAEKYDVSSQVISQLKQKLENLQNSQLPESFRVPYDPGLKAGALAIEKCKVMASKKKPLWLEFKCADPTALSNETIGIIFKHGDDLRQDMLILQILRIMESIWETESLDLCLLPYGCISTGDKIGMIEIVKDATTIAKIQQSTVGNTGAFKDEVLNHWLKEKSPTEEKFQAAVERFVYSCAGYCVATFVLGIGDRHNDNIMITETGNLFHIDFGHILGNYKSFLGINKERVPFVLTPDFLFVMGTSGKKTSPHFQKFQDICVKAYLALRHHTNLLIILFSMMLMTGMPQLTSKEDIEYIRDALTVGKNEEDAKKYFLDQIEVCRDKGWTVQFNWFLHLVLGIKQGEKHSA
Sequence of p110δ/p85α (O00329 whole entry): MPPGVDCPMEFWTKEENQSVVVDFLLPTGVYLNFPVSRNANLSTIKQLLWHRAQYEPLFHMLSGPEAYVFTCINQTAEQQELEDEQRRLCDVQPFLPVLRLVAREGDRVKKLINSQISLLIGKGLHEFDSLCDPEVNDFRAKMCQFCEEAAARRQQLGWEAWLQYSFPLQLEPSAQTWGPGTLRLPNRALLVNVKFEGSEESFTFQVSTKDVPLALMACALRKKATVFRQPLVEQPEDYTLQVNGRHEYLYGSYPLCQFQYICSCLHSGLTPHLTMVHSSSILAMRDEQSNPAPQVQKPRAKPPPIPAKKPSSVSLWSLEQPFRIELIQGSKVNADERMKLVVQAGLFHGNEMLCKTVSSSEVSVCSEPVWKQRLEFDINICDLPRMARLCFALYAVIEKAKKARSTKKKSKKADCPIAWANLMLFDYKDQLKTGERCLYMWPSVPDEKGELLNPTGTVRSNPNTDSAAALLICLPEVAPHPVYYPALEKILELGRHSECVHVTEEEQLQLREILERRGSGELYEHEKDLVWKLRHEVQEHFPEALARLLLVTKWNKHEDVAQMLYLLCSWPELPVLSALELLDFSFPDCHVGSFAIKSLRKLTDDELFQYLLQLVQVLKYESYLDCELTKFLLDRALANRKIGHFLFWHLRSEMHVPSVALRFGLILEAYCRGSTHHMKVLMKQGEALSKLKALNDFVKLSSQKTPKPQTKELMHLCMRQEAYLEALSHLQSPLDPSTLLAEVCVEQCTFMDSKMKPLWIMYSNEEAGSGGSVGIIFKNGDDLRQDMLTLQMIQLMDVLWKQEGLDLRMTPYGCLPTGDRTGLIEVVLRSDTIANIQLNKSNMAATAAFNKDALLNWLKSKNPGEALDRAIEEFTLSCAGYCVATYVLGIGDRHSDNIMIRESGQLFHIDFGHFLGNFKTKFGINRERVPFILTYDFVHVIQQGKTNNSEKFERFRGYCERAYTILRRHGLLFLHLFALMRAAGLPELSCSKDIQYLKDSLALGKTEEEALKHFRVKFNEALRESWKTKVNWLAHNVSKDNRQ
Sequence of p110δ/p85α (P27986 whole entry partner): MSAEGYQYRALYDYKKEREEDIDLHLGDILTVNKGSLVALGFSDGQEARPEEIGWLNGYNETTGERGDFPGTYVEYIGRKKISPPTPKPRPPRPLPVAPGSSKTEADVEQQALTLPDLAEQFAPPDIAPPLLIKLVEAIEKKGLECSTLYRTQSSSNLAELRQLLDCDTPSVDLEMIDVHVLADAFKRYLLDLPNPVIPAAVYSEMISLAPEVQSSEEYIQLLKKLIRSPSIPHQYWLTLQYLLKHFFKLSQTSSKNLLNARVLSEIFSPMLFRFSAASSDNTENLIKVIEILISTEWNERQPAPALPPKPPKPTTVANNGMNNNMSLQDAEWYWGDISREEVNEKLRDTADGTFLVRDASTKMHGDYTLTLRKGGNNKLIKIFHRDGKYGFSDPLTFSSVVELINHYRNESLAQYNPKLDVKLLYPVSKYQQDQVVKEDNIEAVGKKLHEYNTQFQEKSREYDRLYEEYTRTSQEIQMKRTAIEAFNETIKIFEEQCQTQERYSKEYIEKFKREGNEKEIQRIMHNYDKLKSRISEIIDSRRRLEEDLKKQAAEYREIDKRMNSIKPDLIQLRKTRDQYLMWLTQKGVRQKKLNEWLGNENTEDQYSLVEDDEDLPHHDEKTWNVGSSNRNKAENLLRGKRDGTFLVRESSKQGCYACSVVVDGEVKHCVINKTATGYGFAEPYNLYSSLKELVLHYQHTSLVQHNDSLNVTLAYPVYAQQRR
Sequence of p110α/p85α (P42336 whole entry): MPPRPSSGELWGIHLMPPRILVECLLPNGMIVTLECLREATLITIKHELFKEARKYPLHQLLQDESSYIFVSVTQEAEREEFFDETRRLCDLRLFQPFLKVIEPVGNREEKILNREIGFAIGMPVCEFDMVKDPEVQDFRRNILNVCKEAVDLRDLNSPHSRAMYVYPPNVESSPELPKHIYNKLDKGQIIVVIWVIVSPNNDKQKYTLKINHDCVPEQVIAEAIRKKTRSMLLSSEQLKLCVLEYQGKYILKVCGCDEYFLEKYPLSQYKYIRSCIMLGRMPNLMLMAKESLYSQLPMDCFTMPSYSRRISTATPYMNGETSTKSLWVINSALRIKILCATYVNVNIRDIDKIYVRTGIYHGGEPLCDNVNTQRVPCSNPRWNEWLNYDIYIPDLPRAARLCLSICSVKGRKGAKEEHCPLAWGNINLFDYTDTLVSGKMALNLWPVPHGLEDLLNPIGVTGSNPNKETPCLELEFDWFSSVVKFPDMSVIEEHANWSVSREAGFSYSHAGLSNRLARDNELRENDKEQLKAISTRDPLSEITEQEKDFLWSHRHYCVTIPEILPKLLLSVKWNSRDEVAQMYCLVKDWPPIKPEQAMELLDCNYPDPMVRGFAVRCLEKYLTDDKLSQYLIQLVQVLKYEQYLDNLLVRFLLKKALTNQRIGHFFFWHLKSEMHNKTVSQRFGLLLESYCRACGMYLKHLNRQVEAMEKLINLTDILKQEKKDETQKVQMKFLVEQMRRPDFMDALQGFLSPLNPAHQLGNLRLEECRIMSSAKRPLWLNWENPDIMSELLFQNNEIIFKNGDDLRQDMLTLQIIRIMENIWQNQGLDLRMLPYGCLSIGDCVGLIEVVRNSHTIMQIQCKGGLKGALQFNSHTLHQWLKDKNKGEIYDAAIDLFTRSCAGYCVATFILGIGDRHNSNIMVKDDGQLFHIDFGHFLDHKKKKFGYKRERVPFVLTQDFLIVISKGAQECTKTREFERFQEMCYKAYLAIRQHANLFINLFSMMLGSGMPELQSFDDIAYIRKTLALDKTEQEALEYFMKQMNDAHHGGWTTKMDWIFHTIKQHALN
Sequence of p110α/p85α (P27986 whole entry partner): as the sequence (P27986 whole entry partner) above

Compound	IC50 (p110δ/p85α)	IC50 (p110α/p85α)	IC50 (p110γ)	IC50 (p110β/p85α; read-out: PI3K β IC50)	IC50 (p110β/p85α; PI3K β IC50)
Nc1ncnc2c1c(-c1cc(F)ccc1O)nn2Cc1cc2ccccc2nc1N1CCCC1 [Compound 22]	> 1000 nM	–	–	–	–
CC(=O)Nc1nc2ccc(-c3nn(Cc4cc5ccccc5nc4N4CCCC4)c4ncnc(N)c34)cc2s1 [Compound 24]	–	100 to 1000 nM	–	–	–
Nc1ncnc2c1c(-c1cc(O)cc(F)c1)nn2Cc1cc2ccccc2nc1NC1CCCC1 [Compound 33]	100 to 1000 nM	–	–	–	–
C[C@@H](O)C#Cc1nn(Cc2cc3ccccc3nc2N2CCCC2)c2ncnc(N)c12 [Compound 41]	< 100 nM	–	–	–	–
C[C@@H](O)C#Cc1nn(Cc2cc3ccccc3nc2N2CCN(C)CC2)c2ncnc(N)c12 [Compound 51]	> 1000 nM	–	–	–	–
CCC(Nc1ncnc2[nH]cnc12)c1cc2ccccc2nc1N1CCCC1 (stereo not drawn) [Compound 53]	100 to 1000 nM	–	> 1000 nM	–	–
Cc1cccc2cc(Cn3nc(-c4cc(O)cc(F)c4)c4c(N)ncnc43)c(N3CCOCC3)nc12 [Compound 65]	< 100 nM	100 to 1000 nM	< 100 nM	100 to 1000 nM	–
Cc1cccc2cc(Cn3nc(-c4cccc(O)c4)c4c(N)ncnc43)c(N3CCOCC3)nc12 [Compound 66]	< 100 nM	> 1000 nM	< 100 nM	100 to 1000 nM	–
CN1CCN(c2nc3ccccc3cc2Cn2cnc3c(N)ncnc32)CC1 [Compound 67]	> 1000 nM	> 1000 nM	> 1000 nM	–	> 1000 nM
Nc1ncnc2c1c(I)nn2Cc1cc2c(nc1-c1ccccc1F)CCC2 [Compound 100]	> 1000 nM	–	–	–	–
Nc1ncnc2c1c(-c1cccc(O)c1)nn2Cc1cc2c(nc1-c1ccccc1F)CCC2 [Compound 102]	> 1000 nM	–	–	–	–
C[C@@H](O)C#Cc1nc2ccccc2nc1Cn1nc(C#C[C@@H](C)O)c2c(N)ncnc21 [Compound 103]	> 1000 nM	–	> 1000 nM	–	–
C[C@@H](O)C#Cc1nn(Cc2nc3ccccc3nc2N2CCCC2)c2ncnc(N)c12 [Compound 106]	100 to 1000 nM	–	> 1000 nM	–	–
Cc1ccccc1-c1ncccc1Cn1nc(-c2cc(O)cc(F)c2)c2c(N)ncnc21 [Compound 121]	> 1000 nM	–	–	–	–
CN(C)c1ncccc1Cn1nc(-c2cccc(O)c2)c2c(N)ncnc21 [Compound 122]	> 1000 nM	–	–	–	–
Nc1ncnc2c1c(-c1cccc(O)c1)nn2Cc1cccnc1N1CCCC1 [Compound 123]	> 1000 nM	–	–	–	–
Nc1ncnc2c1c(-c1cc(O)cc(F)c1)nn2Cc1cccnc1N1CCCC1 [Compound 124]	> 1000 nM	–	–	–	–
CN(C)c1ncccc1Cn1nc(-c2cc(O)cc(F)c2)c2c(N)ncnc21 [Compound 125]	> 1000 nM	–	–	–	–
CC(=O)Nc1nc2ccc(-c3nn(Cc4cc5ccccc5nc4N4CCN(C(C)C)CC4)c4ncnc(N)c34)cc2s1 [Compound 163]	–	100 to 1000 nM	–	< 100 nM	–
CC(C)N1CCN(c2nc3ccccc3cc2Cn2nc(-c3ccc4nc(N)sc4c3)c3c(N)ncnc32)CC1 [Compound 164]	–	< 100 nM	–	< 100 nM	–
CC1CCCN1c1nc2ccccc2cc1Cn1ncc2c(N)ncnc21 (stereo not drawn) [Compound 188]	> 1000 nM	> 1000 nM	–	> 1000 nM	–
CN1CCN(c2nc3ccccc3cc2Cn2nc(-c3cc(O)cc(F)c3)c3c(N)ncnc32)CC1 [Compound 197]	–	–	–	100 to 1000 nM	–

Continued, in another order:

IC50 (p110δ/p85α)	IC50 (p110α/p85α)	IC50 (p110γ)	IC50 (p110β/p85α; read-out: PI3K β IC50)	Compound	IC50 (p110β/p85α; PI3K β IC50)
100 to 1000 nM	–	–	–	COc1ccccc1-c1nc2ccccc2cc1Cn1nc(-c2cccc(O)c2)c2c(N)ncnc21 [Compound 14]	–
> 1000 nM	–	–	–	COc1ccccc1-c1nc2ccccc2cc1Cn1nc(C#C[C@@H](C)O)c2c(N)ncnc21 [Compound 18]	–
> 1000 nM	–	–	–	Nc1ncnc2c1c(-c1ccccc1O)nn2Cc1cc2ccccc2nc1N1CCCC1 [Compound 21]	–
> 1000 nM	–	–	–	CC(=O)Nc1cccc(-c2nn(Cc3cc4ccccc4nc3N3CCCC3)c3ncnc(N)c23)c1 [Compound 27]	–
> 1000 nM	–	–	–	NC(=O)c1cccc(-c2nn(Cc3cc4ccccc4nc3N3CCCC3)c3ncnc(N)c23)c1 [Compound 28]	–
100 to 1000 nM	> 1000 nM	> 1000 nM	> 1000 nM	Nc1ncnc2c1c(-c1cc(O)cc(F)c1)nn2Cc1cc2ccccc2nc1NC1CC1 [Compound 29]	–
> 1000 nM	–	> 1000 nM	–	CC(c1cc2ccccc2nc1N1CCCC1)n1cnc2c(N)ncnc21 (stereo not drawn) [Compound 35]	–
> 1000 nM	–	> 1000 nM	–	CCC(c1cc2ccccc2nc1N1CCCC1)n1cnc2c(N)ncnc21 (stereo not drawn) [Compound 36]	–
> 1000 nM	–	> 1000 nM	–	CCC(c1cc2ccccc2nc1-c1ccccc1)n1cnc2c(N)ncnc21 (stereo not drawn) [Compound 37]	–
100 to 1000 nM	–	> 1000 nM	–	CN1CCN(c2nc3ccccc3cc2Cn2nc(I)c3c(N)ncnc32)CC1 [Compound 44]	–
100 to 1000 nM	–	100 to 1000 nM	–	Nc1ncnc2c1c(-c1cccc3[nH]ncc13)nn2Cc1cc2ccccc2nc1N1CCCC1 [Compound 58]	–
100 to 1000 nM	–	100 to 1000 nM	–	Nc1ncnc2c1c(-c1cccnc1)nn2Cc1cc2ccccc2nc1N1CCCC1 [Compound 62]	–
> 1000 nM	–	–	–	Cc1ccccc1-c1ncccc1Cn1nc(-c2cccc(O)c2)c2c(N)ncnc21 [Compound 120]	–
> 1000 nM	–	–	–	Nc1ncnc2c1c(-c1cc(O)cc(F)c1)nn2CCn1c(-c2ccccc2)nc2ccccc21 [Compound 126]	–
–	–	–	> 1000 nM	Nc1ncnc2c1c(-c1cc(O)cc(F)c1)nn2Cc1cc2ccccc2nc1-c1ccccc1 [Compound 149]	–
100 to 1000 nM	> 1000 nM	–	> 1000 nM	Nc1ncc(-c2nn(Cc3cc4ccccc4nc3-c3ccccc3)c3nccc(N)c23)cn1 [Compound 160]	–
–	> 1000 nM	–	> 1000 nM	Nc1ncnc2c1c(-c1ccc(O)nc1)nn2Cc1cc2ccccc2nc1-c1ccccc1F [Compound 161]	–
–	> 1000 nM	–	> 1000 nM	NC1=NC=NC2C1C(c1ccc(O)nc1)=NN2Cc1cc2ccccc2nc1-c1ccccc1 (stereo not drawn) [Compound 162]	–
> 1000 nM	> 1000 nM	–	> 1000 nM	Nc1cc(-c2nn(Cc3cc4ccccc4nc3-c3ccccc3F)c3ncnc(N)c23)ccn1 [Compound 172]	–
> 1000 nM	> 1000 nM	–	> 1000 nM	Nc1cc(-c2nn(Cc3cc4ccccc4nc3-c3ccccc3)c3ncnc(N)c23)ccn1 [Compound 173]	–
> 1000 nM	> 1000 nM	–	> 1000 nM	Nc1ncnc2c1c(-c1ccnc(O)c1)nn2Cc1cc2ccccc2nc1-c1ccccc1F [Compound 177]	–
> 1000 nM	> 1000 nM	–	> 1000 nM	Nc1ncnc2c1c(-c1ccnc(O)c1)nn2Cc1cc2ccccc2nc1-c1ccccc1 [Compound 178]	–
100 to 1000 nM	> 1000 nM	100 to 1000 nM	–	CC(=O)Nc1nc2ccc(-c3nn(Cc4cc5ccccc5nc4-c4ccccc4F)c4ncnc(N)c34)cc2[nH]1 [Compound 183]	–
> 1000 nM	> 1000 nM	–	> 1000 nM	N#Cc1nn(Cc2cc3ccccc3nc2-c2ccccc2F)c2ncnc(N)c12 [Compound 189]	–
